# Experimental data from ChEMBL document CHEMBL3885861, “Open TG-GATES”.
# Species on record: Rattus norvegicus
# Test: Open TG-GATES - Regimen: Daily Repeat
# Assay type: toxicity, organism-based, Sprague-Dawley
# Parameters: regimen Daily Repeat, gender Male, age 6 weeks
# Conditions: in vivo, po, 60 mg/kg, route gavage, dose level Middle; for APTT / Bas / Eos / Fbg / Hb / Ht / Lym / MCH / MCHC / MCV / Mono / Neu / PT / Plat / RBC / Ret / WBC: tissue Blood; for KIDNEY_L / KIDNEY_R / KIDNEY_TOTAL: tissue Kidney; for LIVER: tissue Liver; for A/G / ALP / ALT / AST / BUN / CRE / Ca / Cl / DBIL / GLC / IP / K / LDH / Na / PL / RALB / TBIL / TC / TG / TP / gamma-GTP: tissue Plasma
compound,measurement,setting,value
Cn1c(=O)c2[nH]cnc2n(C)c1=O.O [THEOPHYLLINE],TERMINAL_BW,"72 h, time 3 day",242.6 g
same,APTT,"72 h, time 3 day",21.7 s
same,Bas,"72 h, time 3 day",0%
same,Eos,"72 h, time 3 day",0.6%
same,Fbg,"72 h, time 3 day",303.4 mg/dL
same,Hb,"72 h, time 3 day",13.4 g/dL
same,Ht,"72 h, time 3 day",40.4%
same,Lym,"72 h, time 3 day",78.4%
same,MCH,"72 h, time 3 day",20.8 pg
same,MCHC,"72 h, time 3 day",33.2%
same,MCV,"72 h, time 3 day",62.8 fL
same,Mono,"72 h, time 3 day",3.2%
same,Neu,"72 h, time 3 day",16.4%
same,PT,"72 h, time 3 day",15.5 s
same,Plat,"72 h, time 3 day",123.5 x10_4/uL
same,RBC,"72 h, time 3 day",644.2 x10_4/ul
same,Ret,"72 h, time 3 day",7.4%
same,WBC,"72 h, time 3 day",126 x10_2/uL
same,KIDNEY_L,"72 h, time 3 day",1 g
same,KIDNEY_R,"72 h, time 3 day",1.1 g
same,KIDNEY_TOTAL,"72 h, time 3 day",2.1 g
same,LIVER,"72 h, time 3 day",10.8 g
same,A/G,"72 h, time 3 day",1.2
same,ALP,"72 h, time 3 day",1599.4 IU/L
same,ALT,"72 h, time 3 day",44.2 IU/L
same,AST,"72 h, time 3 day",69.2 IU/L
same,BUN,"72 h, time 3 day",14.8 mg/dL
same,CRE,"72 h, time 3 day",0.2 mg/dL
same,Ca,"72 h, time 3 day",10.7 mg/dL
same,Cl,"72 h, time 3 day",106.2 meq/L
same,DBIL,"72 h, time 3 day",0 mg/dL
same,GLC,"72 h, time 3 day",186 mg/dL
same,IP,"72 h, time 3 day",8.4 mg/dL
same,K,"72 h, time 3 day",4.2 meq/L
same,LDH,"72 h, time 3 day",146.6 IU/L
same,Na,"72 h, time 3 day",142 meq/L
same,PL,"72 h, time 3 day",132.8 mg/dL
same,RALB,"72 h, time 3 day",2.9 g/dL
same,TBIL,"72 h, time 3 day",0.004 mg/dL
same,TC,"72 h, time 3 day",80.4 mg/dL
same,TG,"72 h, time 3 day",75 mg/dL
same,TP,"72 h, time 3 day",5.3 g/dL
same,gamma-GTP,"72 h, time 3 day",1.4 IU/L
same,TERMINAL_BW,"[…], time 7 day",265.8 g
same,TERMINAL_BW,"[…], time 14 day",313.9 g
same,TERMINAL_BW,"[…], time 28 day",384.1 g
same,APTT,"[…], time 7 day",23.4 s
same,Bas,"[…], time 7 day",0%
same,Eos,"[…], time 7 day",0.8%
same,Fbg,"[…], time 7 day",299.4 mg/dL
same,Hb,"[…], time 7 day",13.9 g/dL
same,Ht,"[…], time 7 day",40.6%
same,Lym,"[…], time 7 day",79%
same,MCH,"[…], time 7 day",21.2 pg
same,MCHC,"[…], time 7 day",34.2%
same,MCV,"[…], time 7 day",61.9 fL
same,Mono,"[…], time 7 day",2.8%
same,Neu,"[…], time 7 day",16.2%
same,PT,"[…], time 7 day",15.4 s
same,Plat,"[…], time 7 day",109.7 x10_4/uL
same,RBC,"[…], time 7 day",655.8 x10_4/ul
same,Ret,"[…], time 7 day",5.4%
same,WBC,"[…], time 7 day",123.4 x10_2/uL
same,APTT,"[…], time 14 day",24.1 s
same,Bas,"[…], time 14 day",0%
same,Eos,"[…], time 14 day",0.8%
same,Fbg,"[…], time 14 day",336.8 mg/dL
same,Hb,"[…], time 14 day",14.5 g/dL
same,Ht,"[…], time 14 day",42.9%
same,Lym,"[…], time 14 day",77.8%
same,MCH,"[…], time 14 day",20.6 pg
same,MCHC,"[…], time 14 day",33.9%
same,MCV,"[…], time 14 day",60.7 fL
same,Mono,"[…], time 14 day",2.4%
same,Neu,"[…], time 14 day",18%
same,PT,"[…], time 14 day",15.1 s
same,Plat,"[…], time 14 day",109.2 x10_4/uL
same,RBC,"[…], time 14 day",706.4 x10_4/ul
same,Ret,"[…], time 14 day",4.9%
same,WBC,"[…], time 14 day",119.3 x10_2/uL
same,APTT,"[…], time 28 day",25.6 s
same,Bas,"[…], time 28 day",0%
same,Eos,"[…], time 28 day",1%
same,Fbg,"[…], time 28 day",330.2 mg/dL
same,Hb,"[…], time 28 day",15.8 g/dL
same,Ht,"[…], time 28 day",45.7%
same,Lym,"[…], time 28 day",78%
same,MCH,"[…], time 28 day",19.8 pg
same,MCHC,"[…], time 28 day",34.5%
same,MCV,"[…], time 28 day",57.3 fL
same,Mono,"[…], time 28 day",3%
same,Neu,"[…], time 28 day",16.8%
same,PT,"[…], time 28 day",15.6 s
same,Plat,"[…], time 28 day",99.5 x10_4/uL
same,RBC,"[…], time 28 day",798 x10_4/ul
same,Ret,"[…], time 28 day",3.3%
same,WBC,"[…], time 28 day",104.8 x10_2/uL
same,KIDNEY_L,"[…], time 7 day",1.2 g
same,KIDNEY_R,"[…], time 7 day",1.2 g
same,KIDNEY_TOTAL,"[…], time 7 day",2.4 g
same,KIDNEY_L,"[…], time 14 day",1.3 g
same,KIDNEY_R,"[…], time 14 day",1.3 g
same,KIDNEY_TOTAL,"[…], time 14 day",2.6 g
same,KIDNEY_L,"[…], time 28 day",1.5 g
same,KIDNEY_R,"[…], time 28 day",1.5 g
same,KIDNEY_TOTAL,"[…], time 28 day",3 g
same,LIVER,"[…], time 7 day",11.6 g
same,LIVER,"[…], time 14 day",13.8 g
same,LIVER,"[…], time 28 day",16.3 g
same,A/G,"[…], time 7 day",1.2
same,ALP,"[…], time 7 day",1497.8 IU/L
same,ALT,"[…], time 7 day",42.2 IU/L
same,AST,"[…], time 7 day",77.6 IU/L
same,BUN,"[…], time 7 day",17.6 mg/dL
same,CRE,"[…], time 7 day",0.2 mg/dL
same,Ca,"[…], time 7 day",10.4 mg/dL
same,Cl,"[…], time 7 day",107 meq/L
same,DBIL,"[…], time 7 day",0 mg/dL
same,GLC,"[…], time 7 day",195.4 mg/dL
same,IP,"[…], time 7 day",7.8 mg/dL
same,K,"[…], time 7 day",4.3 meq/L
same,LDH,"[…], time 7 day",175.4 IU/L
same,Na,"[…], time 7 day",142.2 meq/L
same,PL,"[…], time 7 day",140.2 mg/dL
same,RALB,"[…], time 7 day",3 g/dL
same,TBIL,"[…], time 7 day",0.006 mg/dL
same,TC,"[…], time 7 day",72 mg/dL
same,TG,"[…], time 7 day",86.8 mg/dL
same,TP,"[…], time 7 day",5.6 g/dL
same,gamma-GTP,"[…], time 7 day",1.6 IU/L
same,A/G,"[…], time 14 day",1.1
same,ALP,"[…], time 14 day",1338.2 IU/L
same,ALT,"[…], time 14 day",43 IU/L
same,AST,"[…], time 14 day",73.8 IU/L
same,BUN,"[…], time 14 day",17 mg/dL
same,CRE,"[…], time 14 day",0.2 mg/dL
same,Ca,"[…], time 14 day",10.3 mg/dL
same,Cl,"[…], time 14 day",105.6 meq/L
same,DBIL,"[…], time 14 day",0 mg/dL
same,GLC,"[…], time 14 day",181 mg/dL
same,IP,"[…], time 14 day",8 mg/dL
same,K,"[…], time 14 day",4.1 meq/L
same,LDH,"[…], time 14 day",178 IU/L
same,Na,"[…], time 14 day",142.2 meq/L
same,PL,"[…], time 14 day",143.4 mg/dL
same,RALB,"[…], time 14 day",3.1 g/dL
same,TBIL,"[…], time 14 day",0.006 mg/dL
same,TC,"[…], time 14 day",79 mg/dL
same,TG,"[…], time 14 day",83.6 mg/dL
same,TP,"[…], time 14 day",5.8 g/dL
same,gamma-GTP,"[…], time 14 day",2.2 IU/L
same,A/G,"[…], time 28 day",1.1
same,ALP,"[…], time 28 day",1071.4 IU/L
same,ALT,"[…], time 28 day",40.8 IU/L
same,AST,"[…], time 28 day",67.8 IU/L
same,BUN,"[…], time 28 day",16.2 mg/dL
same,CRE,"[…], time 28 day",0.2 mg/dL
same,Ca,"[…], time 28 day",10.3 mg/dL
same,Cl,"[…], time 28 day",106 meq/L
same,DBIL,"[…], time 28 day",0 mg/dL
same,GLC,"[…], time 28 day",189.8 mg/dL
same,IP,"[…], time 28 day",7.4 mg/dL
same,K,"[…], time 28 day",4.1 meq/L
same,LDH,"[…], time 28 day",137.6 IU/L
same,Na,"[…], time 28 day",143.2 meq/L
same,PL,"[…], time 28 day",135.8 mg/dL
same,RALB,"[…], time 28 day",3.2 g/dL
same,TBIL,"[…], time 28 day",0.024 mg/dL
same,TC,"[…], time 28 day",71.2 mg/dL
same,TG,"[…], time 28 day",97.4 mg/dL
same,TP,"[…], time 28 day",6.1 g/dL
same,gamma-GTP,"[…], time 28 day",1.8 IU/L
